Publication PMC9241669, “Allantodapsone is a Pan-Inhibitor of Staphylococcus aureus Adhesion to Fibrinogen, Loricrin, and Cytokeratin 10” (Microbiology Spectrum, 2022)
≈ marks a conversion by molar mass, not a printed value. Where “and” joins values, the source holds several entries; their conditions need not be identical. Identical values can stand only once. Entries after “also recorded” stand apart in the source; their conditions may differ.

Legend:
S. aureus Newman [1] = experiment: Adhesion of S. aureus Newman to GST-L2v loricrin; assay type: cell-based, Staphylococcus aureus; conditions: for activity in adhesion of S. aureus Newman to L2v loricrin: screened at 80 μM (Fig. 4D)
Procedure: FIG 4 Allantodapsone inhibits S. aureus adhesion to loricrin and cytokeratin 10. Dose-response curve for adhesion of S. aureus Newman to GST-L2v loricrin (A) and CK10 (C). (B) Inhibition of recombinant ClfB N2N3 binding to immobilized GST-L2v loricrin by allantodapsone. (D) Inhibition of S. aureus Newman adhesion to GST-L2v loricrin by allantodapsone derivatives. Purified GST-L2v or CK10 were used to coat plates at 4°C overnight. Wells were washed with PBS and blocked with 1% BSA. Washed bacteria (OD600 of 1) were mixed with allantodapsone or vehicle control before being added to the wells and incubated for 2 h at 37°C. Adherent cells were washed, fixed, and stained with crystal violet, and wells further washed. The dye was dissolved in acetic acid, and the absorbance measured at 570 nm. GST-L2v was used at 20 μM in A and D. CK10 was used at 10 nM. Test compounds were incubated with bacteria at 80 μM and normalized to the DMSO vehicle control in D. For data presented in B, recombinant ClfB was incubated with allantodapsone (100 μM) or DMSO (1%) for 30 min prior to being added to wells coated with recombinant GST-L2v loricrin. Bound ClfB was detected using peroxidase-conjugated anti-His monoclonal antibody in an ELISA. The graphs shown are representative of three independent experiments. Statistics were carried out using one-way ANOVA followed by the Dunnett’s posttest using GraphPad Prism version 9.0.
(§1) Adhesion assays were carried out according to Hartford et al. ([37]). Briefly, plates were coated with 10 μg/mL fibrinogen (Calbiochem, Darmstadt, Germany) or 20 μg/mL fibronectin (Sigma-Aldrich, Ireland) for 2 h at 37°C or for 16 h at 4°C. Plates were blocked with 1% BSA at 37°C for 1 h and washed 3 times in PBS. Washed bacteria were incubated at 37°C for 2 h. Adherent bacteria were washed three times in PBS and fixed in 5–9% formaldehyde at room temperature for 30 min. Wells were washed three times in PBS and stained using 5% crystal violet for 20 min. Wells were washed three times in PBS, and the crystal violet solubilized using 5% acetic acid. Plates were read at 570 nm on a Wallac Victor2, (Shelton, CT, USA). The minimum adhesion inhibitory concentration (MAIC) was determined as the concentration inhibiting greater than 90% bacterial adhesion.

S. aureus SH1000 = experiment: Adhesion of S. aureus SH1000 to immobilized fibrinogen (crystal violet); assay type: cell-based, Staphylococcus aureus; conditions: S. aureus SH1000, stationary and exponential phase; compounds screened at 70 μM (Fig. 2)
Procedure: (§2) FIG 2 Allantodapsone inhibits S. aureus adhesion to fibrinogen. (A) S. aureus Newman stationary phase and (B) exponential phase. (C) S. aureus SH1000 stationary phase and (D) exponential phase bacteria. Fibrinogen was used to coat plates at 4°C overnight at 10 μg/mL. Wells were washed with PBS and blocked with 1% BSA. Washed bacteria (OD600 of 1) were mixed with the relevant concentration of allantodapsone or vehicle control for 5 min, and added to the wells, incubating for 2 h at 37°C. Adherent cells were washed, fixed, and stained with crystal violet, and wells further washed. The dye was dissolved in acetic acid and the absorbance measured at 570 nm. Compounds were screened at a concentration of 70 μM and compared to their vehicle control. Statistical analysis was carried out using repeated measures ANOVA followed by multiple comparisons Dunnett’s tests using GraphPad PRISM. **, P ≤ 0.01; ***, P ≤ 0.001; ****, P ≤ 0.0001 (n = 3).
as §1
(§3) Compounds were added to the bacterial suspension prior to addition to the wells. In each experiment, vehicle controls were prepared using the same volume of vehicle for the matching test compound.

S. aureus Newman [2] = experiment: Adhesion of S. aureus Newman to immobilized fibrinogen (crystal violet); assay type: cell-based, Staphylococcus aureus; conditions: for inhibition of adhesion to fibrinogen: S. aureus Newman, stationary and exponential phase, compounds screened at 70 μM (Fig. 2); for activity of individual fragments of allantodapsone: assay not specified
Procedure: FIG 1 Allantodapsone inhibits S. aureus Newman adhesion to fibrinogen. Dose response curves for S. aureus Newman (A), L. lactis ClfA (B), and L. lactis ClfB (C) adhesion to fibrinogen. Fibrinogen was used to coat plates at 4°C overnight at 10 μg/mL. Wells were washed with PBS and blocked with 1% BSA. Washed bacteria (OD600 of 1) were mixed with the relevant concentration of allantodapsone or vehicle control (DMSO) for 5 min, and added to the wells, incubating for 2 h at 37°C. Adherent cells were washed, fixed, and stained with crystal violet, and wells further washed. The dye was dissolved in acetic acid and the absorbance measured at 570 nm. IC50 values were generated using GraphPad Prism 9.0 GraphPad software, San Diego, CA. Data are representative of three experiments with error presented as SEM.
as §2, §1, §3

S. aureus Newman [3] = experiment: Antimicrobial assay (bacterial growth in BHI broth); assay type: cell-based, Staphylococcus aureus; conditions: for MIC90: Staphylococcus aureus, S. aureus Newman, overnight growth in BHI broth; for inhibition of bacterial growth (words): overnight in BHI broth, allantodapsone up to 100 μM, versus vehicle control
Procedure: S. aureus was grown in BHI broth shaking overnight at 37°C in the presence of a range of concentrations of allantodapsone, dapsone, or ampicillin as control. Absorbance was measured the following day at 570 nm. Data have been normalized to the relevant vehicle control (1% DMSO for allantodapsone and dapsone and water for ampicillin). […] Error bars represent SEM.
S. aureus was grown overnight in BHI broth at 37°C in shaking incubator. Wells were inoculated with 10 μL of overnight culture into 90 μL of broth containing the test compounds or controls. A growth control containing no agents was used (positive control), a sterility control of broth alone was included, and vehicle controls were included for each test compound. Plates were incubated overnight at 37°C and absorbance measured at 570 nm the following day using a Wallac Victor2, (Shelton, CT, USA).

MSSA isolates = conditions: cited from earlier work

Row | Compound | activity in adhesion of S. aureus Newman to L2v loricrin (S. aureus Newman [1]) | inhibition of adhesion to fibrinogen (S. aureus SH1000) | inhibition of adhesion to fibrinogen (S. aureus Newman [2]) | activity of individual fragments of allantodapsone (S. aureus Newman [2]) | MIC90 (S. aureus Newman [3]) | inhibition of bacterial growth (words) (S. aureus Newman [3]) | also measured
1 | N=C(N)Nc1ccc(Oc2cccc(NC(=N)N)c2)cc1 [Compound 10] | loss of activity |  |  |  |  |  | 
2 | N=C(N)Nc1ccc(Oc2cccc(NC(=O)c3ccc(Cl)c(C(F)(F)F)c3)c2)cc1 [Compound 11] | demonstrated activity; also recorded: maintained some activity |  |  |  |  |  | adhesion to L2v loricrin, normalized to DMSO vehicle control (S. aureus Newman [1]; test compound at 80 μM, S. aureus Newman): 61.3% ± 7
3 | O=C1NC(=O)C(=O)C(=O)N1 [alloxan] |  | Neither dapsone nor alloxan had any inhibitory activity | Neither dapsone nor alloxan had any inhibitory activity; also recorded: did not have any inhibitory effect | did not show any activity |  |  | 
4 | CC1(C)S[C@@H]2[C@H](NC(=O)[C@H](N)c3ccccc3)C(=O)N2[C@H]1C(=O)O [ampicillin] |  |  |  |  | 0.03 µM and 0.01 µg/mL | pronounced inhibitory effect on growth | MIC90 reported for S. aureus isolates (MSSA isolates; microdilution method in MSSA isolates): 0.015 to 4 µg/mL
5 | Nc1ccc(S(=O)(=O)c2ccc(N)cc2)cc1 [dapsone] |  | Neither dapsone nor alloxan had any inhibitory activity | Neither dapsone nor alloxan had any inhibitory activity; also recorded: did not have any inhibitory effect | did not show any activity | 0.3 µM and 0.1 µg/mL | inhibited growth | MIC90 previously determined in MSSA strains (MSSA isolates; MSSA strains): 128 µg/mL (≈ 515 µM); range printed in parentheses after MIC90 in MSSA strains (MSSA isolates; MSSA strains): 32 to 256 µg/mL
6 | O=C1NC(=O)C(=NO)C(=O)N1 [violuric acid] |  |  |  | did not show any activity |  |  | 
